{"source": "paper PMC11009648", "about": "“Development of an orally bioavailable mSWI/SNF ATPase degrader and acquired mechanisms of resistance in prostate cancer” (Proceedings of the National Academy of Sciences of the …, 2024)", "key": {"[1]": {"test_system": "22Rv1 AUR-2 cells", "assay": "CellTiter-Glo cell viability assay in AU-15330-resistant 22Rv1 AUR-2 cells (SMARCA4 mutation)", "type": "cell-based, human", "conditions": "dose-response (Fig. S4C)", "from_the_text": "The rising importance of the mSWI/SNF complex as a therapeutic target and the success ([32], [33]) of developing next-generation PROTAC degraders targeting the mSWI/SNF complex prompted us to proactively study potential resistance mechanisms that cancer cells may develop in response to this class of compounds. To achieve this, we cultured 22Rv1 cells in either DMSO or a lethal dose of AU-15330 for 1 mo, refreshing the drug twice a week, until resistant cells emerged. Upon obtaining a population of resistant cells, we unbiasedly characterized the genomic and transcriptomic alterations using whole-exome sequencing and bulk RNA sequencing (RNA-seq), respectively (Fig. 3A).\nCells were seeded onto 96-well plates in appropriate culture media and allowed to adhere overnight prior to treatment. The next day, a nine-point serial dilution of the compounds was prepared and added to the plates. After treatment, the cells were then incubated for an additional 5 d. […] The signal (luminescence) from each well was determined using an Infinite M1000 Pro plate reader (Tecan). Relative viability was determined by dividing the signal from each well by the average of the control condition in each experiment. Finally, the data were analyzed and plotted using GraphPad Prism."}, "[2]": {"test_system": "SMARCA4, SMARCA2 and PBRM1 in 22Rv1 AUR-2 cells", "assay": "Immunoblot of target degradation in 22Rv1 AUR-2 cells", "type": "cell-based, human", "conditions": "4 h, AU-15330 1 µM, AU-24118 0.1 µM", "description": "(§1) Lysates were prepared using radioimmunoprecipitation assay buffer (Thermo Fisher) with cOmpleteTM protease inhibitor cocktail tablets (Sigma-Aldrich) added. Total protein for each sample was determined using the DC Protein Assay (Bio-Rad) according to the manufacturer’s instructions. A standardized quantity of protein was resolved using NuPAGE Tris-Acetate Protein Gel (3 to 8%) (Thermo Fisher) or NuPAGE Bis-Tris Protein Gel (4 to 12%) (Thermo Fisher) and probed with primary antibodies as indicated. Following incubation with secondary antibodies conjugated with horseradish peroxidase, membranes were imaged on an Odyssey Fc Imager (LiCOR Biosciences)."}, "[3]": {"assay": "In vivo pharmacokinetics in rats", "conditions": "plasma; for Cmax: read-out: Cmax/C0", "from_the_text": "All experimental procedures relating to animal care, handling, and treatment were approved by the Institutional Animal Ethics Committee of Aurigene Oncology Ltd. based on the Committee for Control and Supervision of Experiments on Animals guidelines. Animals were included for experimentation after 1 wk of acclimatization to standard laboratory conditions and were provided with reverse osmosis-treated water and rodent pellet diet ad libitum.\nThe pharmacokinetic profile of AU-24118 was studied in both mice and rats. For assessment of oral bioavailability, AU-24118 was administered by intravenous (i.v.) and oral (p.o.) routes at 1 mg/kg and 30 mg/kg doses, respectively (n = 3). For the oral arm, AU-24118 was administered as a solution formulation in 10% PEG200, 50% of 20% D-α-Tocopherol polyethylene glycol 1000 succinate and 40% of 1% Tween-80 in water while AU-24118 was formulated in 2% DMA and 10% HPβCD in saline (qs) for the intravenous administration.\nConcentrations of AU-24118 were determined in plasma samples using a nonvalidated (fit for purpose) LC–MS/MS method in positive Multiple Reaction Monitoring mode with transition pair of m/z: 633.11→344.00. Either Carbamazepine (with a transition pair of m/z: 237.07→194.10) or Telmisartan (with a transition pair of m/z: 515.16→276.00) were used as internal standards. Sample processing was carried out by protein precipitation followed by evaporation method. Compound concentrations were calculated using Analyst® software 1.7.2 with linear/quadratic regression algorithm (with 1/×2 weighting factor) over a quantification range of 1 ng/mL to 2,500 ng/mL with the low and high ends of this range defining the lower limit of quantitation and upper limit of quantitation, respectively."}, "[4]": {"assay": "In vivo pharmacokinetics in mice", "conditions": "mouse, plasma, oral, dose escalation (Fig. 1G)"}, "[5]": {"test_system": "mutant forms of SMARCA4 in HEK293 cells", "assay": "Immunoblot of overexpressed flag-tagged mutant SMARCA4 in HEK293 cells", "type": "cell-based, human", "conditions": "24 h treatment", "from_the_text": "GFP-SMARCA4 (Addgene, 65391) was used for the SMARCA4 mutation clone. The pLVX-TetOne-Puro-hAXL (Addgene, 124797) backbone was used as a starting point prior to undergoing a series of modifications. The endogenous target gene was removed, and a multiple cloning site (MCS) was inserted downstream of the endogenous promoter. Custom gblocks containing Flag-tagged WT SMARCA4 were synthesized (Integrated DNA Technologies, IDT) and inserted into the MCS. Subsequently, custom gblocks containing SMARCA4-N1540S, SMARCA4-I1551del, or SMARCA4-F1485S were inserted to replace the respective portion of WT SMARCA4. Finally, the TRE3G promoter was replaced with hPGK.\nHEK293 cells were seeded overnight and transfected with Lipofectamine 3,000 (Thermo Fisher) according to the manufacturer’s protocol. Media were changed 8 h post transfection and incubated for 48 h prior to conducting further analyses."}, "[6]": {"test_system": "proteome of VCaP cells (SMARCA2, SMARCA4, PBRM1)", "assay": "TMT mass spectrometry proteomics of VCaP cells", "type": "cell-based, human", "method": "Cells were plated at 5 × 10^6 cells per well in a 6-well plate overnight prior to treatment with DMSO, 100 nM AU-24118, or 1 μM AU-15330 for 2 h. Whole cell lysates were prepared in RIPA buffer (Thermo Fisher) supplemented with tablets of cOmpleteTM protease inhibitor cocktail (Sigma-Aldrich). For each condition, 75 µg of total protein was labeled with TMT isobaric Label Reagent (Thermo Fisher) according to the manufacturer’s protocol and subjected to 12 fractions of liquid chromatography–MS (LC–MS)/MS analysis."}, "[7]": {"test_system": "SMARCA4 (BRG1) and PBRM1 in VCaP cells", "assay": "Immunoblot of target degradation in VCaP cells", "type": "cell-based, human", "conditions": "4 h, identical treatment conditions", "description": "as §1"}, "[8]": {"test_system": "22Rv1-wild type (WT) cells", "assay": "CellTiter-Glo cell viability assay in 22Rv1 wild type cells", "type": "cell-based, human", "conditions": "Homo sapiens, 22Rv1, Fig. S5F; 22Rv1 WT", "method": "Cells were seeded onto 96-well plates in appropriate culture media and allowed to adhere overnight prior to treatment. The next day, a nine-point serial dilution of the compounds was prepared and added to the plates. After treatment, the cells were then incubated for an additional 5 d. On the last day of treatment, the CellTiter-Glo cell viability assay (Promega) was then executed in accordance with the manufacturer’s guidelines. The signal (luminescence) from each well was determined using an Infinite M1000 Pro plate reader (Tecan). Relative viability was determined by dividing the signal from each well by the average of the control condition in each experiment. Finally, the data were analyzed and plotted using GraphPad Prism."}}}
{"smiles": "Nc1nnc(-c2ccccc2O)cc1-c1ccc(N2CCC(N3CCC(c4ccc(OC5CCC(=O)NC5=O)cc4)CC3)CC2)cc1", "note": "(centres unmarked) [AU-24118]", "values": [{"measurement": "ability to cause a decrease in cell viability", "setting": "[1]", "value": "unable"}, {"measurement": "degradation of SMARCA2 and PBRM1, immunoblot", "setting": "[2]", "value": "able to degrade SMARCA2 and PBRM1"}, {"measurement": "degradation of SMARCA4, immunoblot", "setting": "[2]", "value": "unable to degrade SMARCA4"}, {"measurement": "bioavailability", "setting": "[3]; Wistar, rat, oral, rats, i.v. 1 mg/kg, p.o. 30 mg/kg, read-out: Oral bioavailability (%F)", "value": 16.3, "unit": "%"}, {"measurement": "AUC(0-inf)", "setting": "[3]; iv, Wistar Rat, I.V. 1mg/kg", "value": 756, "unit": "ng·h/mL"}, {"measurement": "AUC(0-t)", "setting": "[3]; iv, Wistar Rat, I.V. 1mg/kg", "value": 670, "unit": "ng·h/mL"}, {"measurement": "half-life", "setting": "[3]; iv, Wistar Rat, I.V. 1mg/kg, read-out: Beta t1/2 (converted)", "value": 8.02, "unit": "h"}, {"measurement": "clearance", "setting": "[3]; iv, Wistar Rat, I.V. 1mg/kg, read-out: CI (Clearance)", "value": 22.1, "unit": "mL/min/kg"}, {"measurement": "Cmax", "setting": "[3]; iv, Wistar Rat, I.V. 1mg/kg", "value": 96.2, "unit": "ng/mL"}, {"measurement": "Vd", "setting": "[3]; iv, Wistar Rat, I.V. 1mg/kg, read-out: Vdss", "value": 13.3, "unit": "L/kg"}, {"measurement": "AUC(0-t)", "setting": "[3]; po, Wistar Rat, P.O. 30mg/kg", "value": 3280, "unit": "ng·h/mL"}, {"measurement": "Cmax", "setting": "[3]; po, Wistar Rat, P.O. 30mg/kg", "value": 184, "unit": "ng/mL"}, {"measurement": "AUC(0-t)", "setting": "[4]; 10mg/kg", "value": 4930, "unit": "ng·h/mL"}, {"measurement": "AUC(0-t)", "setting": "[4]; 100mg/kg", "value": 32200, "unit": "ng·h/mL"}, {"measurement": "Cmax", "setting": "[4]; 100mg/kg, read-out: Cmax/C0", "value": 1930, "unit": "ng/mL"}, {"measurement": "degradation of overexpressed mutant SMARCA4, immunoblot", "setting": "[5]", "value": "resistant to degradation"}, {"measurement": "selectivity of degradation, MS-based proteomics", "setting": "[6]; VCaP cells, 100 nM AU-24118, 2 h", "value": "selectively degraded SMARCA2, SMARCA4, and PBRM1"}, {"measurement": "degradation of IMiD neosubstrates, proteomics", "setting": "[6]; human cell line (VCaP)", "value": "not found to degrade any canonical immunomodulatory imide drug (IMiD) neosubstrates such as IKZF1, IKZF3, and GSPT1"}, {"measurement": "degradation of SMARCA4 and PBRM1, immunoblot", "setting": "[7]", "value": "comparable degradation efficacy of SMARCA4 and PBRM1 to AU-15330"}, {"measurement": "IC50", "setting": "[8]", "value": 9.42, "unit": "nM"}]}
